# Experimental data from patent US20080125432A1 (Devgen NV, priority 2004, published 2008).
# Tests used:
# [1] = system: arterially perfused rabbit left ventricular wedge preparation; experiment: Arterially perfused rabbit left ventricular wedge preparation (QT, Tp-e, EAD, TdP); conditions: 2000 ms BCL; for Tp-e: control 52.2 ± 3.7; for QT: control 288.2 ± 11.1; for EAD: events per preparations
# Description: The compounds were checked for their effect on the QT interval, the Tp-e interval (Yan and Antzelevitch, Circulation 1998; 98:1928-1936; Yan et al, Circulation 2001; 103:2851-2856) that approximates closely to transmural dispersion of repolarization (TDR), the Tp-e/QT ratio that reflects the potential of phase 2 early afterdepolarization (EAD) development in sub- and/or endocardium (Joshi et al, Journal of Electrocardiology, 2004, 34 (suppl): 7-14) and the phenomena dependent on phase 2 EAD (i.e. R on T extrasystole and TdP) in the isolated arterially-perfused rabbit ventricular wedge preparation.
# Female rabbits weighting 2.5-3 kg were anticoagulated with heparin and anesthetized with pentobarbital (30-35 mg/kg, i.v.). The chest was opened via left thoracotomy, and the heart was excised and placed in a cardioplegic solution consisting of cold (4° C.) normal Tyrode s solution (in mmol/l: NaCl 129, KCl 4.0, CaCl2 1.8, NaH2PO4 0.9, MgSO4 0.5, NaHCO3 20, glucose 5.5). A transmural wedge, approximately 1.5 cm wide and 2-3 cm long, was dissected from the left ventricle and rapidly cannulated via the left anterior descending artery or the circumflex artery and perfused with cardioplegic solution for <4 min. The preparation was then transferred to a tissue bath (100 ml) and perfused with warm (35.7±0.1° C.) Tyrode's solution containing 4 mM K^+ buffered ? with 95% O2 and 5% CO2. Perfusion pressure was set at 40-50 mmHg by using a peristaltic pump. The preparation was paced at a basic cycle length of 1000 ms and allowed to equilibrate for approximately 1 h, the time necessary to achieve electrical stability. Electrical pacing was delivered via bipolar silver electrodes insulated except at the tips and applied to the endocardial surface.
# After the preparation equilibrated for one hour, the experiment was initiated. During the infusion of the compounds, the preparation was stimulated from the endocardium at basic cycle lengths of 1000 ms from the beginning of the infusion to the 20th minute and then at 2000 ms from the 20th minute to the 30th minute. At the end of each pacing cycle length, the ECG signal was sampled for 1 to 2 min at a sampling rate of 1562 Hz (Spike 2 software, CED, England)
# A transmural ECG signal was recorded in all experiments. The QT interval was defined as the time from the onset of the QRS to the point at which the final downslope of the T wave across isoelectric line. The QT interval values were derived from the mean values of four consecutive beats. (Yan and Antzelevitch, Circulation 1998; Yan et al, Circulation 2001; 103:2851-2856; and Antzelevitch, Journal of Electrocardiology 2004; 37(Suppl): 15-24).
# [2] = system: isolated guinea pig right ventricular papillary muscle; experiment: Ex-vivo organ study: functional refractory period in isolated guinea pig right ventricular papillary muscle; conditions: conc 10^−5 mol/l
# Description: The compounds were checked for their effect on the force of contraction, stimulation threshold and for the Functional Refractory Period (FRP) in isolated rat left atria (Rat LA). Rat left atria functionally express the Kv4.3 ion channel, producing the Ito current of the action potential. […] The guinea pig action potential is dominated by hERG like ion channels for the refractory currents. Consequently, activity of hERG channels in vivo should be seen in GP pap muscle preparations.
# Method: Rat LA (Same Method Applies to GP pap. Muscle)
# Left atria were mounted vertically in a two-chambered organ bath containing 100 ml of buffer solution (in mM: NaH2PO4 0.6, MgSO4 0.6, KCl 4.7, NaHCO3 25, glucose 4.5, NaCl-120, CaCl2 2.4). The solution was saturated with and circulated by a gas mixture containing 95% O2 and 5% CO2. The temperature was kept constant at 30° C. […] The isometric force of the preparations was measured by force transducers, connected to amplifiers, documented by a pen recorder and fed into a computer for evaluation. Force of contraction (FC), threshold stimulus (TS) and the functional refractory period (FRP) were measured at baseline (pre), 20 min after addition of compound, and after washout at the end of the experiment. Threshold stimulus, representing excitability of the tissue, was assessed by varying the voltage applied for electrical stimulation. […]
smiles,measurement,setting,value
"COc1ccccc1Nc1nc(C)c(C(=O)N[C@H]2CCC[C@@H]2OCc2ccccc2)s1 [Compound 68, 2-(2-methoxy-phenylamino)-4-methyl-thiazole-5-carboxylic acid (1S,2S)-2-(benzyloxycyclopent-1-yl) amide]",TdP Score,[1]; 1 μmol/l,0.0 ± 0.0
same,Tp-e,[1]; 1 μmol/l,52.0 ± 3.9 ms
same,QT,[1]; 1 μmol/l,287.6 ± 11.4 ms
same,EAD,[1]; 1 μmol/l,0/5
same,TdP Score,[1]; 3 μmol/l,0.0 ± 0.0
same,Tp-e,[1]; 3 μmol/l,51.4 ± 4.0 ms
same,QT,[1]; 3 μmol/l,286.6 ± 12.0 ms
same,EAD,[1]; 3 μmol/l,0/5
same,dFRP Guinea Pig,[2],0 ms
